Where “and” joins values, the source holds several entries; their conditions need not be identical. Equal values may be shown once. Read-outs that look alike come from different tables or passages of the source.
What was measured:
AsPC-1 = assay: Cell viability assay (MTT) on AsPC-1; conditions: for viability at 20 µM / IC50: Homo sapiens; for viability at 20 µM: ASPC1, read-out: AsPC-1 Cell Viability, remaining viability, 20 μM drug, normalized by blank control, three repeats; for AsPC-1 Cell Viability: remaining viability, 20 μM drug, normalized by blank control, three repeats
ATG4B [1] = target: T1, ATG4B (Homo sapiens, UniProt Q9Y4P1); assay: In vitro cleavage assay of ATG4B catalytic activity (western blot of tagged LC3B); type: biochemical; conditions: read-out: inhibition on ATG4B's catalytic activity
shATG4B/HCT116 = assay: Cell viability assay on shATG4B/HCT116 (ATG4B silencing strain); type: cell-based, human; conditions: 20 μM drug, S strain; for viability at 20 µM: Homo sapiens, HCT-116, remaining viability, read-out: shATG4B/HCT116 Cell Viability
shCtrl/HCT116 = assay: Cell viability assay on shCtrl/HCT116 (control strain); type: cell-based, human; conditions: 20 μM drug, C strain; for viability at 20 µM: Homo sapiens, HCT-116, remaining viability, read-out: shCtrl/HCT116 Cell Viability
AK4.4 = assay: Cell viability assay (MTT) on AK4.4; conditions: for IC50: Mus musculus
HCT116 = assay: Cell viability assay on HCT116; type: cell-based, human; conditions: for viability at 20 µM: Homo sapiens, HCT-116, remaining viability, read-out: HCT116 Cell Viability; for viability at 20 µM / HCT116 Cell Viability: 20 μM drug, normalized by blank control, three repeats; for HCT116 Cell Viability: remaining viability
[2] = in vivo
[3] = tested on: AK4.4 pancreatic ductal adenocarcinoma (PDAC) xenograft; conditions: dose of 20 mg/kg, I.P.
ATG4B [4] = target: T2, ATG4B (Homo sapiens, UniProt Q9Y4P1); assay: In vitro cleavage assay of ATG4B catalytic activity (western blot of tagged LC3B); type: biochemical
T2 sequence (Q9Y4P1 whole entry, looked up): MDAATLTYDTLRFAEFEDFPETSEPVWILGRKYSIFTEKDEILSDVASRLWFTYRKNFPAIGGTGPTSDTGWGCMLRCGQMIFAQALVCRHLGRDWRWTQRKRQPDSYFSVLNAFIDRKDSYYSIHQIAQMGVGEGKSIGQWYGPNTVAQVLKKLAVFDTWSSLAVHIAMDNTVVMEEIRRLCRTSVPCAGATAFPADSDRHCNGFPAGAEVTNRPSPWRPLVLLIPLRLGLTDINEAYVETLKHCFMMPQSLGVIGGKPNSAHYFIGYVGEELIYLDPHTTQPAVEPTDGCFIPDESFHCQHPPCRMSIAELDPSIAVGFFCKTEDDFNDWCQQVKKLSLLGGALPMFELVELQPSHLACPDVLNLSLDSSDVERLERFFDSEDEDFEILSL

ATG4B [5] = target: T2, ATG4B; assay: ATG4B activity reporter assay (cleaved PLA2 fluorescence); type: biochemical; set-up: host or cells: in silico model from PDB 2Z0D
ATG4B [6] = target: T1, ATG4B; assay: ATG4B enzyme activity assay by S-tag-based immunoblotting; type: biochemical; conditions: read-out: inhibition of ATG4B catalysis
Excerpt: Protein expression and purification for the study of prediction of the allosteric sites in ATG4B Human ATG4B with N-terminal 6xHis-tag and human LC3B with both N-terminal 6xHis-tag and C-terminal S-tag were cloned into pETDuet-1 expression plasmids as previously described (Shu, C W et al., 2010, Autophagy 6, 936-947), subsequently transformed into E. coli BL21 (ECOS 21, Yeastern Biotech Co., FYE207-40VL). A single colony harboring the correctly in-frame inserted gene was inoculated into an overnight culture that was then diluted 100-fold in fresh Luria-Bertani broth with 50 μg/mL ampicillin for growing at 37° C. with 200 rpm agitation for 2 to 3 hours until the optical density of the culture at 600 nm reaches 0.4 (around 3×10^8 cells/mL). […]
The expression cell culture was harvested by 12,000×g centrifugation at 4° C. for 20 minutes, and the cell pellets of 1 liter broth were resuspended in a 10 mL lysis buffer (50 mM Tris-HCl, pH 7.4, 300 mM NaCl, 20 mM imidazole). […] The protein purity was verified >90% by Coomassie blue staining on SDS-PAGE, and the quantity was measured by bicinchoninic acid assay.
ATG4B enzyme activity assay was analyzed by immunoblotting. […] The intensities of remaining substrate LC3B after enzymatic cleavage were quantified by the software ImageJ.

[7] = target: full-length fusion protein composed of C-Myc, pro-LC3B, and S-tag, Q9GZQ8
[8] = target: LC3B substrate of the ATG4B activity reporter assays (cleavage releases PLA2), Q9GZQ8; assay: cell-based or functional assay
[9] = Tc concentration for 50% reduction of viability in combination with 0.50 μM Mx
[10] = Tc concentration for 50% reduction of viability in combination with 1.00 μM Mx
[11] = Tc concentration for 50% reduction of viability in combination with 2.5 μM Vb
[12] = Tc concentration for 50% reduction of viability in combination with 5 μM Vb
[13] = Tc concentration for 50% reduction of viability in combination with 10 μM Vb

In the case of `Cc1ccc(C(=O)Nc2ccc(CN3CCN(C)CC3)c(C(F)(F)F)c2)cc1C#Cc1cnc2cccnn12` [Ponatinib], the viability at 20 µM (AsPC-1) is reported as 47%, the “AsPC-1 Cell Viability” value (AsPC-1) is reported as 47.2 ± 1.3% and the inhibition at 5 µM (ATG4B [1]) is reported as 30%. For the same molecule, the viability at 20 µM (shATG4B/HCT116) was 31%, the viability at 20 µM (shCtrl/HCT116) was 21% and the “shCtrl/HCT116 Cell Viability” value (shCtrl/HCT116; remaining viability) was 21.3 ± 0.6%. The IC50 (AK4.4; read-out: IC50, Pn) was 0.51 µM, the viability at 20 µM (HCT116) was 19% and the “HCT116 Cell Viability” value (HCT116) was 18.5 ± 0.6%.

With `Clc1ccc(C(Cn2ccnc2)OCc2ccsc2Cl)c(Cl)c1` (stereo not shown) [tioconazole] the IC50 (AsPC-1; ASPC1, read-out: IC50, Tc, tioconazole alone, AsPC-1 (Table 9)) was 13.5 µM, the IC50 (AsPC-1; ASPC1, read-out: IC50, Tc, tioconazole alone, AsPC-1 (Table 13)) was 9.61 µM and the “CTc, 50” value (AsPC-1; [9]) was 8.61 µM. For the same molecule, the “CTc, 50” value (AsPC-1; [10]) was 7.83 µM, the “CTc, 50” value (AsPC-1; Tc concentration for 50% reduction of viability in combination with 1.25 μM Mx) was 5.65 µM and the “CTc, 50” value (AsPC-1; [11]) was 8.14 µM. For the same molecule, the “CTc, 50” value (AsPC-1; [12]) was 6.32 µM, the “CTc, 50” value (AsPC-1; [13]) was 5.21 µM and the “liver weight, % of mouse body weight” value [2] was 5.69%. The “increase in the liver (relative organ weight)” value ([2]; mouse) was 8%, the “increase in triglyceride as compared to the control” value ([2]; mouse) was 25% and the triglyceride ([2]; mouse) was 198.2 mg/dL. The “tumor size measured on day 16 versus control group” value [3] was “less than half of the tumor size in the control group”, the IC50 (AK4.4; read-out: IC50, Tc, tioconazole alone, AK4.4 (Table 8)) was 14 µM and the IC50 (AK4.4; read-out: IC50, Tc, tioconazole alone, AK4.4 (Table 11)) was 12.5 µM. For the same molecule, the IC50 (AK4.4; read-out: IC50, Tc, tioconazole alone, AK4.4 (Table 12)) was 13 µM, the “CTc, 50” value (AK4.4; Tc concentration for 50% reduction of viability in combination with 0.05 μM Pn) was 12.31 µM and the “CTc, 50” value (AK4.4; Tc concentration for 50% reduction of viability in combination with 0.1 μM Pn) was 11.85 µM. For the same molecule, the “CTc, 50” value (AK4.4; Tc concentration for 50% reduction of viability in combination with 0.25 μM Pn) was 5.86 µM, the “CTc, 50” value (AK4.4; [9]) was 13.42 µM and the “CTc, 50” value (AK4.4; Tc concentration for 50% reduction of viability in combination with 0.5 μM Pn) was 0.17 µM. For the same molecule, the “CTc, 50” value (AK4.4; [10]) was 4.21 µM, the “CTc, 50” value (AK4.4; [11]) was 12.07 µM and the “CTc, 50” value (AK4.4; [12]) was 8.43 µM. For the same molecule, the “CTc, 50” value (AK4.4; [13]) was 5.88 µM and the “decrease of cell viability of HCT116” value (HCT116; human, 10 μM) was 33%.

For Ac-YDTLGIF-NH2 [N-term-7], the “inhibition to ATG4B activity at lower peptide concentration” value (ATG4B [4]; 1 μM peptide) was “maintained” and the “inhibition to ATG4B activity” value (ATG4B [4]; ATG4B cleavage assays, 10 μM peptide) was “about 30%”.

In the case of Ac-YDTLRFAEF-NH2 [N-term-9], the “inhibition to ATG4B activity at lower peptide concentration” value (ATG4B [5]; 1 μM peptide) is reported as “maintained” and the “inhibition to ATG4B activity” value (ATG4B [5]; ATG4B activity reporter assays, 10 μM peptide) is reported as ~25%.

`CO/N=C1\C[C@]2(C[C@@H]3C[C@@H](C/C=C(\C)C[C@@H](C)/C=C/C=C4\CO[C@@H]5[C@H](O)C(C)=C[C@@H](C(=O)O3)[C@]45O)O2)O[C@H](/C(C)=C/C(C)C)[C@H]1C` [Moxidectin] gave a viability at 20 µM (AsPC-1) of 8%, an IC50 (AsPC-1; ASPC1, read-out: IC50, Mx, moxidectin alone, AsPC-1 (Table 13)) of 1.38 µM and an IC50 (AsPC-1; ASPC1, read-out: IC50, Mx, moxidectin alone, AsPC-1 (Table 15)) of 1.24 µM. For the same molecule, the “CMx, 50” value (AsPC-1; Mx concentration in combination with Vb for a 50% reduction of the cell viability, listed as Mx) was 0.50 µM and 1.00 µM, the “AsPC-1 Cell Viability” value (AsPC-1) was 7.8 ± 0.8% and the inhibition at 10 µM (ATG4B [1]; 10 μM) was 38%. For the same molecule, the viability at 20 µM (shATG4B/HCT116) was 1%, the “shATG4B/HCT116 Cell Viability” value (shATG4B/HCT116; remaining viability) was 0.9 ± 0.1% and the inhibition at 10 µM (ATG4B [6]; 10 μM) was 36%. The inhibition at 20 µM (ATG4B [6]; 20 μM) was > 80%, the viability at 20 µM (shCtrl/HCT116) was 1% and the IC50 (AK4.4; read-out: IC50, Mx, moxidectin alone, AK4.4 (Table 12)) was 1.07 µM. For the same molecule, the IC50 (AK4.4; read-out: IC50, Mx, moxidectin alone, AK4.4 (Table 14)) was 0.87 µM, the “CMx, 50” value (AK4.4; Mx concentration in combination with Tc for a 50% reduction of the cell viability, listed as Mx) was 0.50 µM and 1.00 µM and the “CMx, 50” value (AK4.4; Mx concentration in combination with Vb for a 50% reduction of the cell viability) was 0.50 µM. For the same molecule, the viability at 20 µM (HCT116) was 2% and the “HCT116 Cell Viability” value (HCT116) was 1.7 ± 0.1%.

B1: autophagy related 4B cysteine peptidase (ATG4B) (protein)
chain: T2 sequence (Q9Y4P1 whole entry, looked up)
In the case of B1, the “cleavage of recombinant pro-LC3B (S-tag band on western blot)” value [7] is reported as “P: positive control, pro-LC3 mixed with ATG4B, and the cleavage by ATG4B resulting in the lighter band for S-tag”, the normalized S-tag band intensity (LICOR; divided by the negative control N) of lane P, no peptide, blot of the N7 series, ATG4B cleavage assay [7] is reported as 0.3 and the normalized S-tag band intensity (divided by the negative control N) of lane P, no peptide, blot of the N18 series, ATG4B cleavage assay [7] is reported as 0.3. The normalized S-tag band intensity (image J; divided by the negative control N) of lane P, no peptide, blot of the N7 series, ATG4B cleavage assay [7] was 0.4.

Ac-YDTLRFAEF-NH2 [N-term-9 (Ac-…-NH2)] gave an inhibition to ATG4B activity (ATG4B activity reporter assays) [8] of 25%.

From patent publication US20230187019A1, “METHOD FOR DETERMINING A DRUG COMBINATION VIA A BLOCKING MODEL OF A MULTI-SITE-TARGETED PROTEIN AND APPLICATIONS THEREOF” (National Tsing Hua University, priority 2021, published 2023)
